The target of assay [1] is Human mTOR (FLAG-TOR) (Homo sapiens, UniProt P42345). In words: mTOR kinase assay (DELFIA format, purified enzyme). The class given is biochemical. The following applies: read-out: IC50 mTOR.
For assay [2], the system named is human breast MDA-MB-361 tumor cell line. The assay is described as follows: In vitro cell culture growth assay (MTS), MDA-MB-361. The format is cell-based. To be noted: Homo sapiens, MTS cell growth assay, three days after drug treatment, MDA-MB-361 cells, read-out: IC50 MDA-MB-361. For orientation: Tetrazolium assays rely on reduction of a dye to a coloured formazan, in cell work by metabolically active cells.

Assay [3] concerns the target PI3K-α (Homo sapiens, UniProt P42336). The assay is described as follows: PI3K-alpha fluorescence polarization assay. To be noted: read-out: IC50 PI3Kα. On the technique in general: In fluorescence polarisation assays a small probe gives low polarisation when free and higher when bound to something large.
For assay [4], the system named is human prostate PC3-mm2 tumor cell line. In words: In vitro cell culture growth assay (MTS), PC3-mm2. The format is cell-based. The following applies: Homo sapiens, PC3MM2, 72 h, MTS cell growth assay, three days after drug treatment, PC3-mm2 cells; read-out: IC50 PC3-mm2.
Assay [5] has as its target PI3K-γ (Homo sapiens, UniProt P48736). The assay is described as follows: PI3K-gamma fluorescence polarization assay. The following applies: read-out: IC50 PI3Kγ.

The source of these data is patent US20090304692A1, “TRIAZINE COMPOUNDS AS PI3 KINASE AND MTOR INHIBITORS” (Wyeth, priority 2008, published 2009).

Like-named read-outs stand apart in the source and are kept apart here.

As usually defined, the IC50 is the concentration that gives 50% inhibition.

PI3K-γ, sequence (P48736 whole entry, species assumed): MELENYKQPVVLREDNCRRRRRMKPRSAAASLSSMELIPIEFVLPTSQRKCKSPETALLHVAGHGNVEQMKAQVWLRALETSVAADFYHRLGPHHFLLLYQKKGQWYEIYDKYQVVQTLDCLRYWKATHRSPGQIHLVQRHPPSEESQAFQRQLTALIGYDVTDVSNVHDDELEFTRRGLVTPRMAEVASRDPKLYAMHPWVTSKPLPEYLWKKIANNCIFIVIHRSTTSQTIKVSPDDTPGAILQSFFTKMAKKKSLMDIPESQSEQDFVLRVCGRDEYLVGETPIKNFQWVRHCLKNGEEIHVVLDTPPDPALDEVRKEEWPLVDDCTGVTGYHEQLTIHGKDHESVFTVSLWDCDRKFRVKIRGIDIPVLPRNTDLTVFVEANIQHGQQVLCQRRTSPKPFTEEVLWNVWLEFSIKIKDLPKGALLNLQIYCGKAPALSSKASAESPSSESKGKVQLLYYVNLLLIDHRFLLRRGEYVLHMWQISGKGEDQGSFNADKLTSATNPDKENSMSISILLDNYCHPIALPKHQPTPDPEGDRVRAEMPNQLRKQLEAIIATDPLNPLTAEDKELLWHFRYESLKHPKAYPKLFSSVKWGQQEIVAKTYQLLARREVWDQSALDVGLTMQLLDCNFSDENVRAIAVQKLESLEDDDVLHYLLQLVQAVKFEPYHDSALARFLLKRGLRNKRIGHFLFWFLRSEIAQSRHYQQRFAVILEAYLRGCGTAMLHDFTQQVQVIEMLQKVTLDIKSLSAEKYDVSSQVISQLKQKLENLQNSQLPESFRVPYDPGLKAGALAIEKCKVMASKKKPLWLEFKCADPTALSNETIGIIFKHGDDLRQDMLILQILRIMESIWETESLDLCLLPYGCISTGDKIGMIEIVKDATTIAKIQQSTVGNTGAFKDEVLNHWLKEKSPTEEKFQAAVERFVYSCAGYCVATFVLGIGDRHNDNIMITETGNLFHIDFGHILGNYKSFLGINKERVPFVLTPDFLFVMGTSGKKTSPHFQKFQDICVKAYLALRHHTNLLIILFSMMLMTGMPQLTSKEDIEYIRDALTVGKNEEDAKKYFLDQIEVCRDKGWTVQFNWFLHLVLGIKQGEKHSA
Human mTOR (FLAG-TOR), sequence (P42345 1360-2549 limits assumed): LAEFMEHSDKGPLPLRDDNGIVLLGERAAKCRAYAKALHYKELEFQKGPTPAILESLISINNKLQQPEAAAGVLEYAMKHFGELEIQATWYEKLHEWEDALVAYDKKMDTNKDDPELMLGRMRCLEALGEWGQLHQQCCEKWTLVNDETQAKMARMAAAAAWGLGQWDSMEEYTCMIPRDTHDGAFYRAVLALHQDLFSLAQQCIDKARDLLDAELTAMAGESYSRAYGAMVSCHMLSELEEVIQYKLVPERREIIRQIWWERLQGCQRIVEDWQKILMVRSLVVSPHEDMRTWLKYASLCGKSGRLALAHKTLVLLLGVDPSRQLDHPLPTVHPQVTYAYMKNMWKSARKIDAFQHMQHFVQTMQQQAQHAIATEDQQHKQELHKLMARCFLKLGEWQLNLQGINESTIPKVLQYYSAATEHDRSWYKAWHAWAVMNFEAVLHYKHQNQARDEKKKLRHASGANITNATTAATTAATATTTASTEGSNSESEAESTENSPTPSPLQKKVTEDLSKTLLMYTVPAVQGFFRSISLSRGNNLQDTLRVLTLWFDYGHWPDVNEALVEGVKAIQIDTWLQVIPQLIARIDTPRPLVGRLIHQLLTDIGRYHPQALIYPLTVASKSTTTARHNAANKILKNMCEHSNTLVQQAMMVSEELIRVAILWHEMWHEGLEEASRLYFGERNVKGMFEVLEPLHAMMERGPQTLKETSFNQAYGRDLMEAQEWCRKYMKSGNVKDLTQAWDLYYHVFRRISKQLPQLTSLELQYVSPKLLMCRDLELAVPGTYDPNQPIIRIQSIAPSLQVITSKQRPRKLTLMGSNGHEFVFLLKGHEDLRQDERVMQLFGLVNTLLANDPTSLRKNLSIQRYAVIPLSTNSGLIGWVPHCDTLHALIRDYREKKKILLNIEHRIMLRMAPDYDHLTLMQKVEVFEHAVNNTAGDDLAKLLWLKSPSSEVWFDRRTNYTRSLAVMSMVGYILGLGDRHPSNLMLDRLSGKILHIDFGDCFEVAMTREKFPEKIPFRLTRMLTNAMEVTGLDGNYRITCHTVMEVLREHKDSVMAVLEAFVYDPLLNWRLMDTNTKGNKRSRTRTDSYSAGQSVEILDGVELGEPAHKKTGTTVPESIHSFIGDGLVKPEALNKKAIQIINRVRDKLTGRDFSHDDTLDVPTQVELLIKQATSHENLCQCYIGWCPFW
PI3K-α, sequence (P42336 whole entry, species assumed): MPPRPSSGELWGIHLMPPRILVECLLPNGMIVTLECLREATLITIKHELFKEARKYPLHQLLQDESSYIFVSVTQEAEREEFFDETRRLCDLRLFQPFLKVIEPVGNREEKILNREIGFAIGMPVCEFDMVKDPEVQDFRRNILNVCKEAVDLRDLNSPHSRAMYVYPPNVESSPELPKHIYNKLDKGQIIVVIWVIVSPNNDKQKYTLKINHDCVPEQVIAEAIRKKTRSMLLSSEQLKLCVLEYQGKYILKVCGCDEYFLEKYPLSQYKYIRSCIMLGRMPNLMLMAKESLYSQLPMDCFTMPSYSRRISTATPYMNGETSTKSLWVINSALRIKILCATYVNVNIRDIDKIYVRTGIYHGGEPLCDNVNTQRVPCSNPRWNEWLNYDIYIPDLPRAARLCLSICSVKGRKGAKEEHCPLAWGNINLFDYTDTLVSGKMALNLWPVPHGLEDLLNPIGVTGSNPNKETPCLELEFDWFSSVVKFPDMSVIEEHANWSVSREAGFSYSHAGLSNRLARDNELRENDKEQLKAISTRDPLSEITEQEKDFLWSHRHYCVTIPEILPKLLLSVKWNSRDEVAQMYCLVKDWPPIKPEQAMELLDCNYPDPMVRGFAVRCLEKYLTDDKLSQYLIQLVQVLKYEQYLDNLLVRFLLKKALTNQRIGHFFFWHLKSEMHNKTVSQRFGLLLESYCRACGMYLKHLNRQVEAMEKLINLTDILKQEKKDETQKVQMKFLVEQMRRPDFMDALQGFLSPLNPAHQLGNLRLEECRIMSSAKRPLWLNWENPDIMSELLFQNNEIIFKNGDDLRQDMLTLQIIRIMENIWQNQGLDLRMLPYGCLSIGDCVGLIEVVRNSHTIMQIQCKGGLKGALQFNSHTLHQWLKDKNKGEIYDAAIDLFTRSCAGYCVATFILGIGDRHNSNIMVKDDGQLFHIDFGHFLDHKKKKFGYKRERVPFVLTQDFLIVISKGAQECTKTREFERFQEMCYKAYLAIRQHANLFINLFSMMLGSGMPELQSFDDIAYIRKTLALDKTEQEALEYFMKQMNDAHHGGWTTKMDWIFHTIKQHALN
PI3K-α, sequence (P27986 whole entry partner, species assumed): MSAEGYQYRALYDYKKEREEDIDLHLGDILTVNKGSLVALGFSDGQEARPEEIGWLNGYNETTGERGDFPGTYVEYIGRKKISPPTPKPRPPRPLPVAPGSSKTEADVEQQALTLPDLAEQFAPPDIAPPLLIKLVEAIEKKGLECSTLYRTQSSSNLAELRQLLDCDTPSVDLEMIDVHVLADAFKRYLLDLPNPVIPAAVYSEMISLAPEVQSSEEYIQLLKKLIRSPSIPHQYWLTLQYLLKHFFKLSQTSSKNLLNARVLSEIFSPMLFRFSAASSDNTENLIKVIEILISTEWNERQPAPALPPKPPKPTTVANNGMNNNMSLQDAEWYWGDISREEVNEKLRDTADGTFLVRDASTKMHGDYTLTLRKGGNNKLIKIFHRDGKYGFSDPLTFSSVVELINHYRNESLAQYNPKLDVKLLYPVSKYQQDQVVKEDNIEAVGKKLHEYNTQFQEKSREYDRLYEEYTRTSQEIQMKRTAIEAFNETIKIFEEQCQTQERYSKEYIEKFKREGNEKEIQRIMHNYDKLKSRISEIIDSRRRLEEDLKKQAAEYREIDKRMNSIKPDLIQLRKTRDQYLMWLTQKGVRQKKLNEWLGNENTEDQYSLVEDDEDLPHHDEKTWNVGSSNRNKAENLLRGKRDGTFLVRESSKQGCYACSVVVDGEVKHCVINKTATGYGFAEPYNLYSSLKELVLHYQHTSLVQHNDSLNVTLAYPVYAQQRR

Turning to `CC(C)N1CCN(C(=O)c2ccc(NC(=O)Nc3ccc(-c4nc(N5CCOCC5)nc(N5CCOC[C@@H]5C)n4)cc3)cc2)CC1` [Example 618, 1-(4-{[4-(1-methylethyl)piperazin-1-yl]carbonyl}phenyl)-3-(4-{4-[(3S)-3-methylmorpholin-4-yl]-6-morpholin-4-yl-1,3,5-triazin-2-yl}phenyl)urea], the IC50 in assay [1] stood at 1 nM; in assay [2] (MDA-MB-361, 72 h), 2 nM; in assay [3] it was 2 nM; in assay [4], 13 nM; in assay [5] it was 18.5 nM.
As for `CCN1CCN(C(=O)c2ccc(NC(=O)Nc3ccc(-c4nc(N5CCOCC5)nc(N5CCOC[C@@H]5C)n4)cc3)cc2)CC1` [Example 620, 1-{4-[(4-ethylpiperazin-1-yl)carbonyl]phenyl}-3-(4-{4-[(3S)-3-methylmorpholin-4-yl]-6-morpholin-4-yl-1,3,5-triazin-2-yl}phenyl)urea], the IC50 in assay [1] stood at 3 nM; in assay [2] (MDA-MB-361, 72 h) it was 4 nM; in assay [3], 4 nM; in assay [4], 16 nM; in assay [5], 32.5 nM.
Turning to `C[C@H]1COCCN1c1nc(-c2ccc(NC(=O)Nc3ccc(C(=O)NCCCN(C)C)cc3)cc2)nc(N2CCOCC2)n1` [Example 621, N-[3-(dimethylamino)propyl]-4-{[(4-{4-[(3S)-3-methylmorpholin-4-yl]-6-morpholin-4-yl-1,3,5-triazin-2-yl}phenyl)carbamoyl]amino}benzamide], the IC50 was found to be 1 nM in assay [1]; 8 nM in assay [2] (72 h); 3.5 nM in assay [3]; 35 nM in assay [4]; 43.5 nM in assay [5].
For `C[C@@H]1COCCN1c1nc(-c2ccc(NC(=O)Nc3ccc(C(=O)N4CCN(C)CC4)cc3)cc2)nc(N2CCOC[C@@H]2C)n1` [Example 623, 1-(4-{4-[(3R)-3-methylmorpholin-4-yl]-6-[(3S)-3-methylmorpholin-4-yl]-1,3,5-triazin-2-yl}phenyl)-3-{4-[(4-methylpiperazin-1-yl)carbonyl]phenyl}urea] the same measures were 1 nM, 6 nM, 12.5 nM, 32 nM and 104 nM.
Take `CCCN(CCC)C1CCN(C(=O)c2ccc(NC(=O)Nc3ccc(-c4nc(N5CCOC[C@@H]5C)nc(N5CCOC[C@@H]5C)n4)cc3)cc2)CC1` [Example 624, 1-(4-{4,6-bis[(3S)-3-methylmorpholin-4-yl]-1,3,5-triazin-2-yl}phenyl)-3-(4-{[4-(dipropylamino)piperidin-1-yl]carbonyl}phenyl)urea]: the IC50 in assay [1] was 1 nM; in assay [2] (MDA-MB-361, 72 h), 4 nM; in assay [3], 17.5 nM; in assay [4], 19 nM; in assay [5], 58.5 nM.
On to `CCN1CCN(C(=O)c2ccc(NC(=O)Nc3ccc(-c4nc(N5CCOC[C@H]5C)nc(N5CCOC[C@@H]5C)n4)cc3)cc2)CC1` [Example 625, 1-{4-[(4-ethylpiperazin-1-yl)carbonyl]phenyl}-3-(4-{4-[(3R)-3-methylmorpholin-4-yl]-6-[(3S)-3-methylmorpholin-4-yl]-1,3,5-triazin-2-yl}phenyl)urea], for which the IC50 in assay [1] was found to be 3 nM; in assay [2] (72 h) it was 12 nM; in assay [3], 16.5 nM; in assay [4], 43 nM; in assay [5], 102 nM.
As to `CCCCN1CCN(C(=O)c2ccc(NC(=O)Nc3ccc(-c4nc(N5CCOC[C@H]5C)nc(N5CCOC[C@@H]5C)n4)cc3)cc2)CC1` [Example 627, 1-{4-[(4-butylpiperazin-1-yl)carbonyl]phenyl}-3-(4-{4-[(3R)-3-methylmorpholin-4-yl]-6-[(3S)-3-methylmorpholin-4-yl]-1,3,5-triazin-2-yl}phenyl)urea], the IC50 was 2 nM in assay [1]; 16 nM in assay [2] (72 h); 18.5 nM in assay [3]; 55 nM in assay [4]; 102 nM in assay [5].
`CCCCN1CCN(C(=O)c2ccc(NC(=O)Nc3ccc(-c4nc(N5CCOC[C@@H]5C)nc(N5CCOC[C@@H]5C)n4)cc3)cc2)CC1` [Example 629, 1-(4-{4,6-bis[(3S)-3-methylmorpholin-4-yl]-1,3,5-triazin-2-yl}phenyl)-3-{4-[(4-butylpiperazin-1-yl)carbonyl]phenyl}urea]: the IC50 in assay [1] is 4 nM; in assay [2] (72 h), 28 nM; in assay [3], 26 nM; in assay [4], 133 nM; in assay [5] it was 95 nM.
`CC(C)N1CCN(C(=O)c2ccc(NC(=O)Nc3ccc(-c4nc(N5CCOC[C@H]5C)nc(N5CCOC[C@@H]5C)n4)cc3)cc2)CC1` [Example 630, 1-(4-{[4-(1-methylethyl)piperazin-1-yl]carbonyl}phenyl)-3-(4-{4-[(3R)-3-methylmorpholin-4-yl]-6-[(3S)-3-methylmorpholin-4-yl]-1,3,5-triazin-2-yl}phenyl)urea]: the IC50 in assay [1] turned out to be 1 nM; in assay [2] (72 h), 5 nM; in assay [3], 13.5 nM; in assay [4] it was 23 nM; in assay [5] it was 84.5 nM.
For `CC(C)CN1CCN(C(=O)c2ccc(NC(=O)Nc3ccc(-c4nc(N5CCOC[C@@H]5C)nc(N5CCOC[C@@H]5C)n4)cc3)cc2)CC1` [Example 631, 1-(4-{4,6-bis[(3S)-3-methylmorpholin-4-yl]-1,3,5-triazin-2-yl}phenyl)-3-(4-{[4-(2-methylpropyl)piperazin-1-yl]carbonyl}phenyl)urea] the same measures were 4 nM, 28 nM, 28 nM, 120 nM and 133 nM.
On to `CCC(C)N1CCN(C(=O)c2ccc(NC(=O)Nc3ccc(-c4nc(N5CCOC[C@@H]5C)nc(N5CCOC[C@@H]5C)n4)cc3)cc2)CC1` (stereo partly drawn) [Example 632, 1-(4-{4,6-bis[(3S)-3-methylmorpholin-4-yl]-1,3,5-triazin-2-yl}phenyl)-3-(4-{[4-(1-methylpropyl)piperazin-1-yl]carbonyl}phenyl)urea], for which the IC50 in assay [1] was determined as 1 nM; in assay [2] (72 h) it was 9 nM; in assay [3], 15 nM; in assay [4], 38 nM; in assay [5] it was 74.5 nM.
For `C[C@H]1COCCN1c1nc(-c2ccc(NC(=O)Nc3ccc(C(=O)NCCN4CCN(C)CC4)cc3)cc2)nc(N2CCOC[C@@H]2C)n1` [Example 633, 4-{[(4-{4,6-bis[(3S)-3-methylmorpholin-4-yl]-1,3,5-triazin-2-yl}phenyl)carbamoyl]amino}-N-[2-(4-methylpiperazin-1-yl)ethyl]benzamide] the same measures were 1 nM, 15 nM, 11.5 nM, 64 nM and 175 nM.
Regarding `C[C@H]1COCCN1c1nc(-c2ccc(NC(=O)Nc3ccc(C(=O)N4CCCCC4)cc3)cc2)nc(N2CCOC[C@@H]2C)n1` [Example 637, 1-(4-{4,6-bis[(3S)-3-methylmorpholin-4-yl]-1,3,5-triazin-2-yl}phenyl)-3-[4-(piperidin-1-ylcarbonyl)phenyl]urea], the IC50 was 4 nM in assay [1]; 26 nM in assay [2] (MDA-MB-361, 72 h); 21.5 nM in assay [3]; 62 nM in assay [4]; 190 nM in assay [5].
For the compound `CCCN1CCN(C(=O)c2ccc(NC(=O)Nc3ccc(-c4nc(N5CCOC[C@@H]5C)nc(N5CCOC[C@@H]5C)n4)cc3)cc2)CC1` [Example 638, 1-(4-{4,6-bis[(3S)-3-methylmorpholin-4-yl]-1,3,5-triazin-2-yl}phenyl)-3-{4-[(4-propylpiperazin-1-yl)carbonyl]phenyl}urea], the IC50 stood at 2 nM in assay [1]; 9 nM in assay [2] (72 h); 16 nM in assay [3]; 44 nM in assay [4]; 114 nM in assay [5].
For `COCCNC(=O)c1ccc(NC(=O)Nc2ccc(-c3nc(N4CCOC[C@@H]4C)nc(N4CCOC[C@@H]4C)n3)cc2)cc1` [Example 639, 4-{[(4-{4,6-bis[(3S)-3-methylmorpholin-4-yl]-1,3,5-triazin-2-yl}phenyl)carbamoyl]amino}-N-(2-methoxyethyl)benzamide] the same measures were 1 nM, 16 nM, 14.5 nM, 27 nM and 123 nM.
In the case of `CN1CCN(C(=O)c2ccc(NC(=O)Nc3ccc(-c4nc(N5CCOCC5)nc(N5CCN(C(=O)N(C)C)CC5)n4)cc3)cc2)CC1` [Example 643, N,N-dimethyl-4-(4-{4-[({4-[(4-methylpiperazin-1-yl)carbonyl]phenyl}carbamoyl)amino]phenyl}-6-morpholin-4-yl-1,3,5-triazin-2-yl)piperazine-1-carboxamide], the IC50 in assay [1] was found to be 7 nM; in assay [2] (MDA-MB-361, 72 h) it was 19 nM; in assay [3] it was 6.2 nM; in assay [4], 59 nM; in assay [5], 42.5 nM.
As to `CN(C)C(=O)N1CCN(c2nc(-c3ccc(NC(=O)Nc4ccc(C(=O)Nc5ccnnc5)cc4)cc3)nc(N3CCOCC3)n2)CC1` [Example 644, N,N-dimethyl-4-{4-morpholin-4-yl-6-[4-({[4-(pyridazin-4-ylcarbamoyl)phenyl]carbamoyl}amino)phenyl]-1,3,5-triazin-2-yl}piperazine-1-carboxamide], the half-inhibitory concentration (IC50) in assay [1] amounted to 1 nM; in assay [2] (72 h), 51 nM; in assay [3] it was 7.8 nM; in assay [4], 185 nM; in assay [5], 59.5 nM.
